From the supplement of paper PMC10307832

Assays:
Experiment in all cases: relative viability (nuclei count vs DMSO), 5 days (fraction); higher = more cells survive
CAP-232 + Pemetrexed = compound: C[C@H]([C@@H](C(=O)N)NC(=O)[C@@H]1CSSC[C@@H](C(=O)N[C@H](C(=O)N[C@@H](C(=O)N[C@H](C(=O)N1)CCCCN)CC2=CNC3=CC=CC=C32)CC4=CC=C(C=C4)O)NC(=O)[C@@H](CC5=CC=CC=C5)N)O [CAP-232] + Nc1nc2[nH]cc(CCc3ccc(C(=O)N[C@@H](CCC(=O)O)C(=O)O)cc3)c2c(=O)[nH]1 [Pemetrexed] (partner 0.2 µM)
Method in brief: (§1)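 Each reported value is a median over duplicate plates. It expresses relative viability: treated-well nuclei count divided by vehicle-well nuclei count. Lung cancer cell lines in 1536-well plates were dosed by pin tool a day after seeding, alone with one drug or with a fixed anchor-drug dose plus five library-drug doses (not always all listed) in √10 steps, and nuclei were counted after 5 days.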

CAP-232 + Linsitinib = compound: C[C@H]([C@@H](C(=O)N)NC(=O)[C@@H]1CSSC[C@@H](C(=O)N[C@H](C(=O)N[C@@H](C(=O)N[C@H](C(=O)N1)CCCCN)CC2=CNC3=CC=CC=C32)CC4=CC=C(C=C4)O)NC(=O)[C@@H](CC5=CC=CC=C5)N)O [CAP-232] + C[C@]1(O)C[C@@H](c2nc(-c3ccc4ccc(-c5ccccc5)nc4c3)c3c(N)nccn32)C1 [Linsitinib] (partner 1 µM)
Method in brief: as §1

CAP-232 + Bortezomib = compound: C[C@H]([C@@H](C(=O)N)NC(=O)[C@@H]1CSSC[C@@H](C(=O)N[C@H](C(=O)N[C@@H](C(=O)N[C@H](C(=O)N1)CCCCN)CC2=CNC3=CC=CC=C32)CC4=CC=C(C=C4)O)NC(=O)[C@@H](CC5=CC=CC=C5)N)O [CAP-232] + CC(C)C[C@H](NC(=O)[C@H](Cc1ccccc1)NC(=O)c1cnccn1)B(O)O [Bortezomib] (partner 0.002 µM)
Method in brief: as §1

CAP-232 + Phenformin = compound: C[C@H]([C@@H](C(=O)N)NC(=O)[C@@H]1CSSC[C@@H](C(=O)N[C@H](C(=O)N[C@@H](C(=O)N[C@H](C(=O)N1)CCCCN)CC2=CNC3=CC=CC=C32)CC4=CC=C(C=C4)O)NC(=O)[C@@H](CC5=CC=CC=C5)N)O [CAP-232] + N=C(N)NC(=N)NCCc1ccccc1 [Phenformin] (partner 250 µM)
Method in brief: as §1

CAP-232 + Tozasertib = compound: C[C@H]([C@@H](C(=O)N)NC(=O)[C@@H]1CSSC[C@@H](C(=O)N[C@H](C(=O)N[C@@H](C(=O)N[C@H](C(=O)N1)CCCCN)CC2=CNC3=CC=CC=C32)CC4=CC=C(C=C4)O)NC(=O)[C@@H](CC5=CC=CC=C5)N)O [CAP-232] + Cc1cc(Nc2cc(N3CCN(C)CC3)nc(Sc3ccc(NC(=O)C4CC4)cc3)n2)n[nH]1 [Tozasertib] (partner 0.1 µM)
Method in brief: as §1

| Cell Line | relative viability (CAP-232 + Pemetrexed; first compound 0.4 µM) | relative viability (CAP-232 + Pemetrexed; first compound 1.265 µM) | relative viability (CAP-232 + Pemetrexed; first compound 4 µM) | relative viability (CAP-232 + Pemetrexed; first compound 12.65 µM) | relative viability (CAP-232 + Linsitinib; first compound 0.4 µM) | relative viability (CAP-232 + Linsitinib; first compound 1.265 µM) | relative viability (CAP-232 + Linsitinib; first compound 4 µM) | relative viability (CAP-232 + Linsitinib; first compound 12.65 µM) | relative viability (CAP-232 + Bortezomib; first compound 0.4 µM) | relative viability (CAP-232 + Bortezomib; first compound 1.265 µM) | relative viability (CAP-232 + Bortezomib; first compound 4 µM) | relative viability (CAP-232 + Bortezomib; first compound 12.65 µM) | relative viability (CAP-232 + Phenformin; first compound 0.4 µM) | relative viability (CAP-232 + Phenformin; first compound 1.265 µM) | relative viability (CAP-232 + Phenformin; first compound 4 µM) | relative viability (CAP-232 + Phenformin; first compound 12.65 µM) | relative viability (CAP-232 + Tozasertib; first compound 0.4 µM) | relative viability (CAP-232 + Tozasertib; first compound 1.265 µM) | relative viability (CAP-232 + Tozasertib; first compound 4 µM) | relative viability (CAP-232 + Tozasertib; first compound 12.65 µM) |
| --- | --- | --- | --- | --- | --- | --- | --- | --- | --- | --- | --- | --- | --- | --- | --- | --- | --- | --- | --- | --- |
| NCI-H1755 | 0.398 | 0.375 | 0.514 | 0.393 | 1.07 | 0.975 | 1.08 | 0.941 | 1.05 | 0.912 | 1.15 | 0.887 | 0.676 | 0.626 | 0.622 | 0.582 | 0.581 | 0.498 | 0.58 | 0.498 |
| SW 1573 | 0.801 | 0.879 | 0.789 | 0.103 | 0.751 | 0.781 | 0.731 | 0.683 | 0.951 | 1.03 | 0.927 | 0.974 | 0.337 | 0.413 | 0.421 | 0.163 | 0.185 | 0.207 | 0.189 | 0.126 |
| NCI-H647 | 0.153 | 0.184 | 0.182 | 0.158 | 1.09 | 1.13 | 1.5 | 0.851 | 0.938 | 0.807 | 0.931 | 0.562 | 0.434 | 0.561 | 0.637 | 0.401 | 0.216 | 0.259 | 0.269 | 0.276 |
| UMC-11 | 0.824 | 0.843 | 0.821 | 0.613 | 1.13 | 1 | 1.14 | 1.1 | 1.11 | 0.719 | 1.11 | 1.1 | 0.309 | 0.28 | 0.332 | 0.295 | 0.202 | 0.191 | 0.214 | 0.17 |
| HCC-15 | 0.19 | 0.218 | 0.223 | 0.0856 | 0.853 | 0.894 | 0.912 | 0.805 | 1.16 | 1 | 1.27 | 0.77 | 0.477 | 0.465 | 0.481 | 0.236 | 0.378 | 0.329 | 0.382 | 0.435 |
| NCI-H2126 | 0.703 | 0.696 | 0.706 | 0.654 | 0.722 | 0.709 | 0.736 | 0.74 | 1.22 | 1.08 | 1.19 | 1.13 | 0.525 | 0.5 | 0.51 | 0.56 | 0.801 | 0.799 | 0.885 | 0.822 |
| NCI-H2085 | 0.941 | 0.796 | 0.899 | 0.918 | 0.816 | 1.04 | 0.955 | 0.843 | 1.2 | 0.974 | 1 | 0.791 | 0.713 | 0.703 | 0.741 | 0.688 | 0.94 | 0.816 | 0.827 | 0.844 |
| BEN | 0.888 | 0.613 | 0.923 | 0.752 | 0.952 | 0.944 | 0.818 | 0.896 | 0.819 | 0.667 | 0.959 | 0.745 | 0.246 | 0.231 | 0.231 | 0.221 | 0.413 | 0.547 | 0.387 | 0.635 |
| NCI-H650 | 0.869 | 0.786 | 0.799 | 0.932 | 1.12 | 0.808 | 0.872 | 0.846 | 0.999 | 0.754 | 0.792 | 0.769 | 0.443 | 0.416 | 0.472 | 0.413 | 0.749 | 0.747 | 0.713 | 0.7 |
| LCLC-103H | 0.443 | 0.441 | 0.431 | 0.445 | 1.13 | 1.08 | 1.13 | 0.946 | 1.33 | 0.927 | 1.16 | 1 | 0.368 | 0.342 | 0.315 | 0.325 | 0.544 | 0.47 | 0.479 | 0.572 |
| PC-3 [JPC-3] | 1.63 | 1.05 | 0.992 | 0.888 | 1.05 | 1 | 0.902 | 0.972 | 0.939 | 0.855 | 0.734 | 0.788 | 0.494 | 0.461 | 0.459 | 0.453 | 1.05 | 0.949 | 0.924 | 0.91 |
| NCI-H2228 | 0.447 | 0.364 | 0.335 | 0.358 | 0.596 | 0.581 | 0.521 | 0.646 | 0.9 | 0.977 | 1.21 | 0.74 | 0.38 | 0.253 | 0.409 | 0.221 | 0.257 | 0.28 | 0.195 | 0.263 |
| COR-L23 | 0.203 | 0.199 | 0.196 | 0.163 | 0.92 | 1 | 0.971 | 0.676 | 0.959 | 1.04 | 1.15 | 0.732 | 0.497 | 0.47 | 0.468 | 0.372 | 0.176 | 0.194 | 0.187 | 0.193 |
| NCI-H1915 | 0.563 | 0.41 | 0.55 | 0.464 | 1.08 | 1.1 | 1.08 | 0.986 | 1.1 | 1.05 | 1.06 | 0.95 | 0.419 | 0.356 | 0.407 | 0.397 | 0.593 | 0.432 | 0.444 | 0.466 |
